Measured values: patent US20210260010A1, “COMPOSITIONS AND METHODS FOR THE REDUCTION OR TREATMENT OF INFLAMMATION” (AXCELLA HEALTH INC., priority 2018, published 2021)

Experiments:
Format in all cases: cell-based
[1] = test system: MCP-1; assay: MCP-1 chemokine secretion by TNFα-stimulated primary human hepatic stellate cells (ELISA)
Method: (§1) Primary human hepatic stellate cells were obtained from Samsara Sciences and grown in Complete HSC Medium to […] confluence in T75 or T150 flasks below passage 10 were seeded into 96-well plates and incubated for 6 hours at 37° C., 5% CO2 in a humidified incubator. After 6 hours, plates were removed from the incubator washed with DPBS and pretreated (±single amino acid dropout, ±supplemental amino acid dose; see experiment for medium composition) overnight, ˜14-15 hours. After overnight pretreatment, the medium was removed from the cells, and the same pretreatment medium, now supplemented with 3 ng/mL TNFα was applied. Plates were incubated for 12 hours at 37° C., 5% CO2. After 12 hour stimulus with TNFα, supernatant was removed and frozen at −80° C. in two separate aliquots. Plates were washed and incubated with CCK-8 viability reagent (Dojindo) for 1 hour. Viability was measured on the Synergy plate reader. Immediately, the medium was removed and the plates were fixed for immunofluorescence staining.
(§2) Human CCL2/MCP1 and Human IL-6 were measured by ELISA (Human […] DuoSet ELISA, R&D Systems; Human IL-6 DuoSet ELISA, R&D Systems) at ⅕ and 1/20 dilution in 1× Reagent Diluent (Reagent Ancillary Kit 2, R&D Systems). Data were normalized to the specific per well cell density determined by Hoechst stained nuclei count.
Tables 35-38 show per-cell normalized MCP-1 chemokine secretion in primary human hepatic stellate cells from two donors as a fold change from the plasma amino acid background. Statistical significance calculated by one-way ANOVA with Dunnett's multiple comparison test within each treatment group.

[2] = test system: IL-6; assay: IL-6 cytokine secretion by TNFα-stimulated primary human hepatic stellate cells (ELISA); conditions: for IL-6 cytokine secretion, per-cell normalized, fold change from plasma amino acid background: primary human hepatic stellate cells, two donors, TNFα 3 ng/mL, 12 hours
Method: as §1, §2
Tables 39-42 show per-cell normalized IL-6 cytokine secretion in primary human hepatic stellate cells from two donors as a fold change from the plasma amino acid background. Statistical significance calculated by one-way ANOVA with Dunnett's multiple comparison test within each treatment group.

[3] = test system: TNFα; assay: LPS-induced TNFα secretion in primary human monocyte-derived macrophages (ELISA); design: TNFa Measurements Mean: unit not given here; conditions: for TNFa Measurements Mean: Donor 1, LPS 0.15 ng/mL; for TNFa Measurements Mean / Donor 2 TNFa Measurements Mean / Donor 3 TNFa Measurements Mean: baseline subtracted; for LPS-induced TNFα secretion: macrophages, 0.15 ng/mL LPS
Method: Unpurified buffy coats (Research Blood Components) were carefully poured into 50 mL centrifuge tubes and diluted with room temperature Dulbecco's Phosphate Buffered Saline (dPBS) with Calcium and Magnesium (Gibco). Diluted buffy coats were further divided into four total 50 mL centrifuge tubes at 20 mL per tube. Lymphocyte Separation Medium (Corning) was carefully pipetted to the bottom of each centrifuge tube. Mixtures were centrifuged at 850× g for 32 minutes at 20° C. with 0 deceleration and acceleration.
The PBMC layer was separated from other components after centrifugation and added to new 50 mL centrifuge tube containing 25 mL dPBS. Total volume was brought up to 50 mL with dPBS and centrifuged at 600×g for 10 minutes at 20° C. with acceleration of 9, deceleration of 5. Supernatant was carefully removed from cell pellets. The cell pellets were resuspended using 10 mL dPBS. Total volume was then brought up to 50 mL using dPBS and centrifuged at 450×g for 5 min at 20° C. with acceleration of 9, deceleration of 9. The supernatant removal and cell pellet resuspension was repeated again.
The supernatant was then carefully removed from cell pellets. Cell pellets were resuspended in 10 mL dPBS without calcium or magnesium and filtered through a 70 uM cell strainer. The total PBMC number was determined using a Cellometer K2 automated cell counter. A total of 5E6 cells were saved for flow cytometric analysis. Remaining cells were centrifuged at 490×g for 5 minutes at 20° C. with acceleration of 9, deceleration of 9.
CD14+ cells were selected using EasySep™ Human CD14 Positive Selection Kit II ([…] Technologies). Cells were resuspended in cold EasySep™ Buffer ([…] Technologies) at 1×10^8 cells/mL. A total of 100 uL/mL EasySep™ Human CD14 Positive Selection Cocktail II was added to the cell suspension, mixed, and incubated at room temperature for 10 minutes. A total of 100 uL/mL RapidSpheres were added to the mixture and incubated at room temperature for 3 minutes after mixing, then RoboSep buffer was added to bring up the total volume to 10 mL. The mixture in a 15 mL tube was placed in magnet and incubated at room temperature for 3 minutes. Supernatant was discarded and 10 mL fresh EasySep™ buffer was added to 15 mL tube. The addition of RoboSep buffer, mixing, and discarding of supernatant was repeated two more times.
Negative and positive fractions were centrifuged at 490×g for 5 minutes at 20° C. with acceleration of 9, deceleration of 9, and resuspended in DMEM (Gibco) and 10% Heat Inactivated Fetal Bovine Serum (Atlanta Bio) and Penicillin/Streptomycin. Cells were counted and centrifuged again at 490× g for 5 minutes at 20° C. with acceleration of 9, deceleration of 9. After centrifugation, cell were resuspended in DMEM (Gibco) and 10% Heat Inactivated Fetal Bovine Serum (Atlanta Bio) and Penicillin/Streptomycin containing 500 U/mL […] and plated at 1-2×10^6 cells/mL on 10 cm tissue culture plates. Cells were kept in 37° C., 5% CO2 in between feedings/harvest.
Cells were fed every 3-4 days by removing media and unattached cells, centrifuging at 490× g for 5 minutes at 20° C. with acceleration of 9, deceleration of 9, and resuspending in fresh DMEM (Gibco) and 10% Heat Inactivated Fetal Bovine Serum (Atlanta Bio) and Penicillin/Streptomycin containing GM-CSF. Resuspended cells were seeded back onto 10 cm tissue culture plates and incubated at 37° C., 5% CO2. Differentiated macrophages were used for subsequent experiments.
Primary human PMBC derived macrophages were seeded on day 0 at 3.0E4 cells per well in 96-well microplates (ThermoFisher) in Dulbecco's Modified Eagle Medium (DMEM) (Gibco) supplemented with penicillin-streptomycin (Hyclone) and 10% heat inactivated fetal bovine serum (HI-FBS) (Atlanta Bio) and incubated overnight at 37° C., 5% CO2. On day 1, cells were washed once with 150 uL per well DPBS (Gibco) and treated with 75 uL of: • a. […]

## NC(=O)CC[C@H](N)C(=O)O [Glutamine, L-Glutamine]
[1]; donor 3, Conc. 562 μM (plasma background, reference)
  Fold Change MCP1 Secretion Normalized Per Cell: 1.0000
[1]; donor 3, Conc. 749 μM
  Fold Change MCP1 Secretion Normalized Per Cell: 0.7048
[1]; donor 3, Conc. 3747 μM
  Fold Change MCP1 Secretion Normalized Per Cell: 0.6036
[1]; donor 3, Conc. 11242 μM
  Fold Change MCP1 Secretion Normalized Per Cell: 0.6106
[1]; donor 3, Conc. 22484 μM
  Fold Change MCP1 Secretion Normalized Per Cell: 0.6212
[1]; donor 4, Conc. 562 μM (plasma background, reference)
  Fold Change MCP1 Secretion Normalized Per Cell: 1.0000
[1]; primary human hepatic stellate cells, two donors, TNFα 3 ng/mL, 12 hours
  MCP-1 chemokine secretion, per-cell normalized, fold change from plasma amino acid background: reduced MCP1 secretion in both donors but was only statistically significant in one of two donors
[2]; donor 1, Conc. 562 μM (plasma background, reference)
  Fold Change IL-6 Secretion Normalized Per Cell: 1.0000
[2]; donor 2, Conc. 562 μM (plasma background, reference)
  Fold Change IL-6 Secretion Normalized Per Cell: 1.0000
[2]; donor 2, Conc. 3747 μM
  Fold Change IL-6 Secretion Normalized Per Cell: 0.7100
[2]
  IL-6 cytokine secretion, per-cell normalized, fold change from plasma amino acid background: significantly reduced
[3]; Conc. 749 μM (baseline)
  TNFa Measurements Mean: 0
[3]; Conc. 3747 μM
  TNFa Measurements Mean: −45.7
[3]; Conc. 11242 μM
  TNFa Measurements Mean: −65.24
[3]; Conc. 22484 μM
  TNFa Measurements Mean: −103.07
[3]; Donor 2, Conc. 749 μM (baseline)
  Donor 2 TNFa Measurements Mean: −9.5E−15
[3]; Donor 2, Conc. 3747 μM
  Donor 2 TNFa Measurements Mean: 9.338
[3]; Donor 2, Conc. 11242 μM
  Donor 2 TNFa Measurements Mean: 20.04
[3]; Donor 2, Conc. 22484 μM
  Donor 2 TNFa Measurements Mean: 11.5
[3]; Donor 3, Conc. 749 μM (baseline)
  Donor 3 TNFa Measurements Mean: 0
[3]; Donor 3, Conc. 3747 μM
  Donor 3 TNFa Measurements Mean: 1.936
[3]; Donor 3, Conc. 11242 μM
  Donor 3 TNFa Measurements Mean: 18
[3]; Donor 3, Conc. 22484 μM
  Donor 3 TNFa Measurements Mean: 29.14
[3]; Donor 2
  LPS-induced TNFα secretion: increased
[3]; Donor 3
  LPS-induced TNFα secretion: increased

## CC[C@H](C)[C@H](N)C(=O)O [Isoleucine, L-Isoleucine]
[1]; donor 3, Conc. 66 μM (plasma background, reference)
  Fold Change MCP1 Secretion Normalized Per Cell: 1.0000
[1]; donor 3, Conc. 1328 μM
  Fold Change MCP1 Secretion Normalized Per Cell: 1.5550
[1]; donor 3, Conc. 3320 μM
  Fold Change MCP1 Secretion Normalized Per Cell: 1.2169
[1]; donor 3, Conc. 6639 μM
  Fold Change MCP1 Secretion Normalized Per Cell: 1.2084
[1]; donor 4, Conc. 66 μM (plasma background, reference)
  Fold Change MCP1 Secretion Normalized Per Cell: 1.0000
[2]; donor 1, Conc. 66 μM (plasma background, reference)
  Fold Change IL-6 Secretion Normalized Per Cell: 1.0000
[2]; donor 2, Conc. 66 μM (plasma background, reference)
  Fold Change IL-6 Secretion Normalized Per Cell: 1.0000
[2]
  IL-6 cytokine secretion, per-cell normalized, fold change from plasma amino acid background: no significant effect
[3]; Conc. 66 μM (baseline)
  TNFa Measurements Mean: 0
[3]; Conc. 1328 μM
  TNFa Measurements Mean: −42.68
[3]; Conc. 3320 μM
  TNFa Measurements Mean: −96.3
[3]; Conc. 6639 μM
  TNFa Measurements Mean: −40.95
[3]; Donor 2, Conc. 66 μM (baseline)
  Donor 2 TNFa Measurements Mean: 4.74E−15
[3]; Donor 2, Conc. 1328 μM
  Donor 2 TNFa Measurements Mean: 2.919
[3]; Donor 2, Conc. 3320 μM
  Donor 2 TNFa Measurements Mean: 10.26
[3]; Donor 2, Conc. 6639 μM
  Donor 2 TNFa Measurements Mean: 19.26
[3]; Donor 3, Conc. 66 μM (baseline)
  Donor 3 TNFa Measurements Mean: −2.4E−15
[3]; Donor 3, Conc. 1328 μM
  Donor 3 TNFa Measurements Mean: −6.23
[3]; Donor 3, Conc. 3320 μM
  Donor 3 TNFa Measurements Mean: 3.309
[3]; Donor 3, Conc. 6639 μM
  Donor 3 TNFa Measurements Mean: −1.66
[3]; Donor 2
  LPS-induced TNFα secretion: increased
